In patent publication US20060194837A1, “Tetrahydroisoquinoline compounds” (priority 2004, published 2006) one finds Ki data, which are given here for 28 molecules.

One assay concerns the target T1, human H3 receptor (Homo sapiens, UniProt Q9Y5N1).
T1 construct: expressed in transfected cells
The assay is described as follows: H3 receptor binding (N-[3H]-α-methylhistamine displacement). The following applies: membranes of SK-N-MC cells expressing cloned human H3 receptor, 0.8 nM N-[3H]-α-methylhistamine, 60 min at 25° C. How it is done: Briefly, cell pellets from SK-N-MC cells expressing the human H3 receptor were homogenized in 50 mM Tris-HCl/5 mM EDTA and re-centrifuged at 30,000 g for 30 min. Pellets were re-homogenized in 50 mM Tris/6 mM EDTA (pH 7.4). Membranes were incubated with 0.8 nM N-[^3H]-α-methylhistamine plus/minus test compounds for 60 min at 25° C. and harvested by rapid filtration over GF/C glass fiber filters (pretreated with 0.3% polyethylenimine) followed by four washes with ice-cold buffer. Nonspecific binding was defined in the presence of 10 μM histamine.

The target in a further assay is T2, Rat SERT (Rattus norvegicus, UniProt P31652).
T2 construct: A rat brain without cerebellum (Zivic Laboratories, Inc.—Pittsburgh, Pa.) was homogenized; tissue Zivic Laboratories, Inc; host or cells: rat brain without cerebellum, membranes
T2 sequence (P31652 whole entry): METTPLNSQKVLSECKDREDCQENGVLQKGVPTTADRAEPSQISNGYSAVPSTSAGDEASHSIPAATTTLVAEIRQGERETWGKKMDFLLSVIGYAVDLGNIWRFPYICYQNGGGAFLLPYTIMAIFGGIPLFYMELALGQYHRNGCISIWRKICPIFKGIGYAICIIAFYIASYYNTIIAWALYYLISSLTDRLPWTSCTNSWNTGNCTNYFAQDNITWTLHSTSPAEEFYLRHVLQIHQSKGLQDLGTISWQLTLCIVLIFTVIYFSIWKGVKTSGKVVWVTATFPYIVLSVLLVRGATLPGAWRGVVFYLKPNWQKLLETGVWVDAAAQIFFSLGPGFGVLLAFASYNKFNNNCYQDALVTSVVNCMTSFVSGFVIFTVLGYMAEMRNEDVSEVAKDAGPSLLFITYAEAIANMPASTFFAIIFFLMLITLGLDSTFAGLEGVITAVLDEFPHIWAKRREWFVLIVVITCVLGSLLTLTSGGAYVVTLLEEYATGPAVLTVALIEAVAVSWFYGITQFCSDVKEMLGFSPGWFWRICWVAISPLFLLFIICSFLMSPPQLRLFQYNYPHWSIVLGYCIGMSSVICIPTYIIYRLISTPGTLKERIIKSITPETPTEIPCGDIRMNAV
The assay is described as follows: Rat brain SERT binding ([3H]-citalopram displacement). Conditions: rat brain membranes without cerebellum, 0.6 nM [3H]-citalopram, 60 min at 25° C.; read-out: Rat SERT Ki. Here is the method:
The supernatant was removed and re-centrifuged at 15,000 rpm for 30 min. […] Membranes were incubated with 0.6 nM [^3H]-Citalopram plus/minus test compounds for 60 min at 25° C. and harvested by rapid filtration over GF/C glass fiber filters (pretreated with 0.3% polyethylenimine) followed by four washes with ice-cold buffer.

T1 sequence (Q9Y5N1 whole entry): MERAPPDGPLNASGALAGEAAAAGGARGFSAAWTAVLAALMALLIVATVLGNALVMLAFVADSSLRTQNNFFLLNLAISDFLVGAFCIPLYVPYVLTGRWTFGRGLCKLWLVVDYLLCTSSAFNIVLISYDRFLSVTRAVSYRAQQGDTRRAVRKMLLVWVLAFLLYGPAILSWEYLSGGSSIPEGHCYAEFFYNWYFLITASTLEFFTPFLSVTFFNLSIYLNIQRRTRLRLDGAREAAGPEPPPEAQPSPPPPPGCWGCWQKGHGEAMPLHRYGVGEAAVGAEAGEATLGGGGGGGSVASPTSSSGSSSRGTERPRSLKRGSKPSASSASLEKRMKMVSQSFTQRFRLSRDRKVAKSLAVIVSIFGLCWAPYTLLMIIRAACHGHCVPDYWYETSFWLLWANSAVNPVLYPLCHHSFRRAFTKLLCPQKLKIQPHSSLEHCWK

As a reminder, the Ki is the dissociation constant of the complex between target and ligand, obtained from inhibition or displacement. `CCCN1CCC(Oc2ccc3c(c2)CN(C)CC3c2cccc(OC)c2)CC1` (centres unmarked) [Example 102, 4-(3-Methoxy-phenyl)-2-methyl-7-(1-propyl-piperidin-4-yloxy)-1,2,3,4-tetrahydro-isoquinoline]: the Ki amounted to 2 nM on human H3 receptor and 13 nM at Rat SERT.

On to `CCN1CCC(COc2ccc3c(c2)CN(C)CC3c2ccc(SC)cc2)CC1` (centres unmarked) [Example 105, 7-(1-Ethyl-piperidin-4-ylmethoxy)-2-methyl-4-(4-methylsulfanyl-phenyl)-1,2,3,4-tetrahydro-isoquinoline], for which the Ki at human H3 receptor was 5 nM; on Rat SERT, 6 nM.

As to `COc1ccc(C2CN(C)Cc3cc(OCC4CCN(C5CCC5)CC4)ccc32)cc1Cl` (centres unmarked) [Example 106, 4-(3-Chloro-4-methoxy-phenyl)-7-(1-cyclobutyl-piperidin-4-ylmethoxy)-2-methyl-1,2,3,4-tetrahydro-isoquinoline], the Ki was determined as 6 nM at human H3 receptor and 25 nM on Rat SERT.

In the case of `CCN1CCC(COc2ccc3c(c2)CN(C)CC3c2ccc(OC)c(Cl)c2)CC1` (centres unmarked) [Example 107, 4-(3-Chloro-4-methoxy-phenyl)-7-(1-ethyl-piperidin-4-ylmethoxy)-2-methyl-1,2,3,4-tetrahydro-isoquinoline], the Ki at human H3 receptor was found to be 5 nM; at Rat SERT it was 10 nM.

As to `CCCN1CCC(COc2ccc3c(c2)CN(C)CC3c2ccc(OC)c(Cl)c2)CC1` (centres unmarked) [Example 108, 4-(3-Chloro-4-methoxy-phenyl)-2-methyl-7-(1-propyl-piperidin-4-ylmethoxy)-1,2,3,4-tetrahydro-isoquinoline], the results for the inhibitory constant (Ki) on human H3 receptor and on Rat SERT were 12 nM and 13 nM, respectively.

Turning to `COc1ccc(C2CN(C)Cc3cc(OCC4CCN(C5CCC5)CC4)ccc32)cc1F` (centres unmarked) [Example 111, 7-(1-Cyclobutyl-piperidin-4-ylmethoxy)-4-(3-fluoro-4-methoxy-phenyl)-2-methyl-1,2,3,4-tetrahydro-isoquinoline], the figures for the Ki at human H3 receptor and at Rat SERT were 8 nM and 4 nM, respectively.

For `COc1ccc(C2CN(C)Cc3cc(OCC4CCN(C5CCC5)CC4)ccc32)c(F)c1` (centres unmarked) [Example 113, 7-(1-Cyclobutyl-piperidin-4-ylmethoxy)-4-(2-fluoro-4-methoxy-phenyl)-2-methyl-1,2,3,4-tetrahydro-isoquinoline], the Ki on human H3 receptor came to 8 nM; on Rat SERT, 10 nM.

As to `CCCN1CCC(COc2ccc3c(c2)CN(C)CC3c2ccc(OC)cc2F)CC1` (centres unmarked) [Example 114, 4-(2-Fluoro-4-methoxy-phenyl)-2-methyl-7-(1-propyl-piperidin-4-ylmethoxy)-1,2,3,4-tetrahydro-isoquinoline], the Ki at human H3 receptor is 4 nM; at Rat SERT it was 9 nM.

In the case of `COc1ccc(C2CN(C)Cc3cc(OCC4CCN(CC(C)C)CC4)ccc32)c(F)c1` (centres unmarked) [Example 115, 4-(2-Fluoro-4-methoxy-phenyl)-7-(1-isobutyl-piperidin-4-ylmethoxy)-2-methyl-1,2,3,4-tetrahydro-isoquinoline], the Ki on human H3 receptor came to 10 nM; at Rat SERT, 8 nM.

Turning to `COc1ccc(C2CN(C)Cc3cc(OC4CCN(C(C)C)CC4)ccc32)c(F)c1` (centres unmarked) [Example 119, 4-(2-Fluoro-4-methoxy-phenyl)-7-(1-isopropyl-piperidin-4-yloxy)-2-methyl-1,2,3,4-tetrahydro-isoquinoline], the Ki on human H3 receptor worked out at 1 nM; on Rat SERT, 9 nM.

In the case of `COc1ccc(C2CN(C)Cc3cc(OC4CCN(C(C)C)CC4)ccc32)cc1F` (centres unmarked) [Example 120, 4-(3-Fluoro-4-methoxy-phenyl)-7-(1-isopropyl-piperidin-4-yloxy)-2-methyl-1,2,3,4-tetrahydro-isoquinoline], the Ki stood at 1 nM on human H3 receptor and 10 nM at Rat SERT.

Regarding `COc1ccc(C2CN(C)Cc3cc(OCC4CCN(C(=O)C(F)(F)F)CC4)ccc32)cc1` (centres unmarked) [Example 122, 2,2,2-Trifluoro-1-{4-[4-(4-methoxy-phenyl)-2-methyl-1,2,3,4-tetrahydro-isoquinolin-7-yloxymethyl]-piperidin-1-yl}-ethanone], the Ki on human H3 receptor came out at 372 nM; at Rat SERT it was 26 nM.

As to `COc1ccc(C2CN(C)Cc3cc(OCC4CCN(CC(F)(F)F)CC4)ccc32)cc1` (centres unmarked) [Example 123, 4-(4-Methoxy-phenyl)-2-methyl-7-[1-(2,2,2-trifluoro-ethyl)-piperidin-4-ylmethoxy]-1,2,3,4-tetrahydroisoquinoline], the Ki amounted to 346 nM on human H3 receptor and 18 nM on Rat SERT.

Take `CN1Cc2cc(OCCCN3CCC(F)CC3)ccc2C(c2ccccc2F)C1` (centres unmarked) [Example 125, 4-(2-Fluoro-phenyl)-7-[3-(4-fluoro-piperidin-1-yl)-propoxy]-2-methyl-1,2,3,4-tetrahydro-isoquinoline]: the Ki worked out at 2 nM at human H3 receptor and 45 nM at Rat SERT.

`COc1ccc(C2CN(Cc3ccccc3)Cc3cc(OCCCN4CCC(F)CC4)ccc32)cc1` (centres unmarked) [Example 127, 2-Benzyl-7-[3-(4-fluoro-piperidin-1-yl)-propoxy]-4-(4-methoxy-phenyl)-1,2,3,4-tetrahydro-isoquinoline]: the Ki at human H3 receptor came to 39 nM; on Rat SERT it was 5000 nM.

With `CN1Cc2cc(OCCCN3CCC(F)CC3)ccc2C(c2cccc(OC(F)(F)F)c2)C1` (centres unmarked) [Example 128, 7-[3-(4-Fluoro-piperidin-1-yl)-propoxy]-2-methyl-4-(3-trifluoromethoxy-phenyl)-1,2,3,4-tetrahydro-isoquinoline], the inhibitory constant (Ki) at human H3 receptor came to 12 nM; on Rat SERT, 40 nM.

For the molecule `COc1ccc(C2CN(C)Cc3cc(OCCCNC(C4CC4)C4CC4)ccc32)cc1` (centres unmarked) [Example 131, Dicyclopropylmethyl-{3-[4-(4-methoxy-phenyl)-2-methyl-1,2,3,4-tetrahydro-isoquinolin-7-yloxy]-propyl}-amine], the Ki came to 85 nM at human H3 receptor and 9 nM on Rat SERT.

Regarding `CN1Cc2cc(OCCCN3CCC(F)CC3)ccc2C(c2ccccc2Cl)C1` (centres unmarked) [Example 132, 4-(2-Chloro-phenyl)-7-[3-(4-fluoro-piperidin-1-yl)-propoxy]-2-methyl-1,2,3,4-tetrahydro-isoquinoline], the figures for the Ki at human H3 receptor and at Rat SERT were 4 nM and 19 nM, respectively.

Take `C[C@H]1COCCN1CCCOc1ccc2c(c1)CN(C)CC2c1ccc(N2CCOCC2)cc1` (stereo partly drawn) [Example 133, 2-Methyl-7-[3-(3S-methyl-morpholin-4-yl)-propoxy]-4-(4-morpholin-4-yl-phenyl)-1,2,3,4-tetrahydro-isoquinoline]: the figures for the Ki on human H3 receptor and at Rat SERT were 2 nM and 50 nM, respectively.

On to `COc1ccc(C2CN(C)Cc3cc(OCCCN4CC(C(c5ccccc5)c5ccccc5)C4)ccc32)cc1` (centres unmarked) [Example 137, 7-[3-(3-Benzhydryl-azetidin-1-yl)-propoxy]-4-(4-methoxy-phenyl)-2-methyl-1,2,3,4-tetrahydro-isoquinoline], for which the Ki at human H3 receptor turned out to be 5000 nM; on Rat SERT, 77 nM.

In the case of `CSc1ccc(C2CN(C)Cc3cc(OC4CCNCC4)ccc32)cc1` (centres unmarked) [Example 149, 2-Methyl-4-(4-methylsulfanyl-phenyl)-7-(piperidin-4-yloxy)-1,2,3,4-tetrahydro-isoquinoline], the Ki at human H3 receptor is 240 nM; at Rat SERT it was 4 nM.

For the molecule `COc1ccc(C2CN(C)Cc3cc(OC4CCNCC4)ccc32)c(F)c1` (centres unmarked) [Example 150, 4-(2-Fluoro-4-methoxy-phenyl)-2-methyl-7-(piperidin-4-yloxy)-1,2,3,4-tetrahydro-isoquinoline], the Ki on human H3 receptor worked out at 175 nM; on Rat SERT, 7 nM.

For `COc1ccc(C2CN(C)Cc3cc(OC4CCNCC4)ccc32)cc1F` (centres unmarked) [Example 151, 4-(3-Fluoro-4-methoxy-phenyl)-2-methyl-7-(piperidin-4-yloxy)-1,2,3,4-tetrahydro-isoquinoline], the inhibition constant (Ki) was 119 nM on human H3 receptor and 3 nM on Rat SERT.

With `CSc1ccc(C2CN(C)Cc3c2ccc(OCCCN2CCOCC2)c3C)cc1` (centres unmarked) [Example 172, 2,8-Dimethyl-4-(4-methylsulfanyl-phenyl)-7-(3-morpholin-4-yl-propoxy)-1,2,3,4-tetrahydro-isoquinoline], the Ki at human H3 receptor worked out at 89 nM; on Rat SERT, 14 nM.

For `CSc1ccc(C2CN(C)Cc3cc(OCCCN4CCOCC4)c(C)cc32)cc1` (centres unmarked) [Example 173, 2,6-Dimethyl-4-(4-methylsulfanyl-phenyl)-7-(3-morpholin-4-yl-propoxy)-1,2,3,4-tetrahydro-isoquinoline], the Ki stood at 15 nM at human H3 receptor and 18 nM on Rat SERT.

As to `CSc1ccc(C2CN(C)Cc3cc(OCC4CCN(CCF)CC4)ccc32)cc1` (centres unmarked) [Example 178, 7-[1-(2-Fluoro-ethyl)-piperidin-4-ylmethoxy]-2-methyl-4-(4-methylsulfanyl-phenyl)-1,2,3,4-tetrahydro-isoquinoline], the Ki at human H3 receptor worked out at 18 nM; at Rat SERT, 6 nM.

In the case of `COc1ccc(C2CN(C)Cc3cc(OCCCN4CC(F)(F)C4)ccc32)cc1` (centres unmarked) [Example 182, 7-[3-(3,3-Difluoro-azetidin-1-yl)-propoxy]-4-(4-methoxy-phenyl)-2-methyl-1,2,3,4-tetrahydro-isoquinoline], the Ki at human H3 receptor is 59 nM; on Rat SERT it was 2 nM.

Regarding `COc1ccc(C2CN(C)Cc3cc(OCCCN4CCOC(CO)C4)ccc32)cc1` (centres unmarked) [Example 184, (4-{3-[4-(4-Methoxy-phenyl)-2-methyl-1,2,3,4-tetrahydro-isoquinolin-7-yloxy]-propyl}-morpholin-2-yl)-methanol], the Ki is 2 nM at human H3 receptor and 1 nM at Rat SERT.
